The record followed here is US20240368120A1 (Terns Pharmaceuticals, Inc., priority 2023, published 2024).

This assay has as its target T1, human GLP-1R receptor (Homo sapiens, UniProt P43220).
T1 construct: expressed in transfected cells
Briefly: GLP-1R low expression cell assay (cAMP TR-FRET, CHO-K1_hGLP-1Rlow_clone10 cells). The format is cell-based. To be noted: for EC50: cAMP TR-FRET, 30 min at 25° C.; for Emax: maximum activation relative to control GLP-1 peptide agonist. An outline of the steps: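 CHO-K1 cells stably expressing low surface human GLP-1R (clone10), 1,000 cells/well, exposed to 10-point 3-fold compound dilutions for 30 min at 25 °C. cAMP measured by TR-FRET (Eu-cAMP tracer/ULight-anti-cAMP, 15 min). EC50 from Hill fit of duplicate percent activation relative to a parallel GLP-1 control agonist.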
In general terms: Time-resolved FRET reads energy transfer from a long-lived donor to a nearby acceptor.

Each structure is given as a SMILES string. Bounds are passed on as bounds.

T1 sequence (P43220 24-463): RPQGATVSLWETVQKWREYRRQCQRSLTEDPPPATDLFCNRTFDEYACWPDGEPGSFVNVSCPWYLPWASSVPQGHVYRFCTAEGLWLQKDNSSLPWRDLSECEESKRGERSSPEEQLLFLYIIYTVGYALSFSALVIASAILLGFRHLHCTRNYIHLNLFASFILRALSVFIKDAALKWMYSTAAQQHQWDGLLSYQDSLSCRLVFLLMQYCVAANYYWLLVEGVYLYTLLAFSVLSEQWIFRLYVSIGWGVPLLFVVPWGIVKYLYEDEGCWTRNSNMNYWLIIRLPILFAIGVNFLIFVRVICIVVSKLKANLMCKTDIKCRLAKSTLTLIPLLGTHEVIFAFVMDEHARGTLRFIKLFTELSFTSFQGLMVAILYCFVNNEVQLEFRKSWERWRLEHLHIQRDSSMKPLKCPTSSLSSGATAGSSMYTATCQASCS

A word on the EC50: it is the concentration that produces a half-maximal response. Lower therefore signals higher potency in that assay. In general, Emax refers to the maximal effect, on the per cent scale that the assay sets. As to `COc1c(C(=O)O)ccc2c1nc(CN1CCC(c3cccc(OCc4ccc(Cl)cc4F)n3)CC1)n2C` [Compound 187, 2-((4-(6-((4-Chloro-2-fluorobenzyl)oxy)pyridin-2-yl)piperidin-1-yl)methyl)-4-methoxy-1-methyl-1H-benzo[d]imidazole-5-carboxylic acid], the EC50 was > 1 µM and the Emax was < 25%.

Turning to `Cn1c(CN2CCC(c3cccc(OCc4ccc(Cl)cc4)n3)CC2)nc2c(OC(F)F)cc(C(=O)O)cc21` [Compound 252, 2-((4-(6-((4-Chlorobenzyl)oxy)pyridin-2-yl)piperidin-1-yl)methyl)-4-(difluoromethoxy)-1-methyl-1H-benzo[d]imidazole-6-carboxylic acid], the EC50 lay in the range of 0.01 to 0.1 µM.

Take `COc1cc(C(=O)O)cc2c1nc(CN1CCC(c3cccc4c3OC[C@@H](c3ccc(C#N)cc3F)O4)CC1)n2C` [Compound 278, (R)-2-((4-(2-(4-Cyano-2-fluorophenyl)-2,3-dihydrobenzo[b][1,4]dioxin-5-yl)piperidin-1-yl)methyl)-4-methoxy-1-methyl-1H-benzo[d]imidazole-6-carboxylic acid]: the half-maximal effective concentration (EC50) was 0.1 to 1 µM and the maximum response (Emax) is > 85%.

As for `Cn1c(CN2CCC(c3cccc(OCc4ccc(Cl)c5c4OCC5)n3)CC2)nc2c(OC(F)F)cc(C(=O)O)cc21` [Compound 331, 2-((4-(6-((4-Chloro-2,3-dihydrobenzofuran-7-yl)methoxy)pyridin-2-yl)piperidin-1-yl)methyl)-4-(difluoromethoxy)-1-methyl-1H-benzo[d]imidazole-6-carboxylic acid], the EC50 lay within 0.01 to 0.1 µM and the Emax was > 85%.

For the molecule `Cn1c(CN2CCC(c3cccc(OCc4ccc(F)cc4F)n3)CC2)nc2c(OC(F)F)cc(C(=O)O)cc21` [Compound 250, 2-((4-(6-((2,4-Difluorobenzyl)oxy)pyridin-2-yl)piperidin-1-yl)methyl)-4-(difluoromethoxy)-1-methyl-1H-benzo[d]imidazole-6-carboxylic acid], the EC50 lay in the range of 0.01 to 0.1 µM.

With `Cn1c(CN2CCC(c3cccc(OCc4ccc(Cl)cc4F)n3)CC2)nc2c(OCCO)cc(C(=O)O)cc21` [Compound 343, 2-((4-(6-((4-Chloro-2-fluorobenzyl)oxy)pyridin-2-yl)piperidin-1-yl)methyl)-4-(2-hydroxyethoxy)-1-methyl-1H-benzo[d]imidazole-6-carboxylic acid], the EC50 is < 0.01 µM and the maximal effect (Emax) was > 85%.

`Cn1c(CN2CCC(c3cccc(OCc4ccc(F)cc4)n3)CC2)nc2c(OC(F)F)cc(C(=O)O)cc21` [Compound 254, 4-(Difluoromethoxy)-2-((4-(6-((4-fluorobenzyl)oxy)pyridin-2-yl)piperidin-1-yl)methyl)-1-methyl-1H-benzo[d]imidazole-6-carboxylic acid] returned an EC50 of 0.1 to 1 µM.

In the case of `CC(F)(F)c1cc(C(=O)O)cc2c1nc(CN1CCC(c3cccc4c3O[C@@](C)(c3ccc(Cl)cn3)O4)CC1)n2C[C@@H]1CCO1` [Compound 57, 2-((4-((S)-2-(5-Chloropyridin-2-yl)-2-methylbenzo[d][1,3]dioxol-4-yl)piperidin-1-yl)methyl)-4-(1,1-difluoroethyl)-1-(((S)-oxetan-2-yl)methyl)-1H-benzo[d]imidazole-6-carboxylic acid], the EC50 was < 0.01 µM.

For the molecule `Cn1c(CN2CCC(c3cccc(OCc4ccc(C#N)cn4)n3)CC2)nc2c(OC(F)F)cc(C(=O)O)cc21` [Compound 213, 2-((4-(6-((5-Cyanopyridin-2-yl)methoxy)pyridin-2-yl)piperidin-1-yl)methyl)-4-(difluoromethoxy)-1-methyl-1H-benzo[d]imidazole-6-carboxylic acid], the concentration giving a half-maximal response (EC50) was in the range of 0.1 to 1 µM and the Emax is > 85%.

In the case of `Cn1c(CN2CCC(c3cccc4c3OC[C@H](c3ccc(C#N)cc3F)O4)CC2)nc2c(OC(F)F)cc(C(=O)O)cc21` [Compound 326, (S)-2-((4-(2-(4-Cyano-2-fluorophenyl)-2,3-dihydrobenzo[b][1,4]dioxin-5-yl)piperidin-1-yl)methyl)-4-(difluoromethoxy)-1-methyl-1H-benzo[d]imidazole-6-carboxylic acid], the EC50 is > 1 µM and the Emax was < 25%.

For `Cn1c(CN2CCC(c3cccc4c3OC(c3ccc(Cl)cc3F)C=C4)CC2)nc2c(OC(F)F)cc(C(=O)O)cc21` (single isomer, unassigned) [Compound 175], the EC50 is < 0.01 µM and the Emax was > 85%.

As to `Cn1c(CN2CCC(c3cccc4c3O[C@@H](c3ccc(Cl)cc3F)CO4)CC2)nc2c(OC(F)F)cc(C(=O)O)cc21` [Compound 334, (S)-2-((4-(3-(4-Chloro-2-fluorophenyl)-2,3-dihydrobenzo[b][1,4]dioxin-5-yl)piperidin-1-yl)methyl)-4-(difluoromethoxy)-1-methyl-1H-benzo[d]imidazole-6-carboxylic acid], the EC50 lay in the range of 0.01 to 0.1 µM and the Emax was > 85%.

On to `COc1cc(F)ccc1COc1cccc(C2CCN(Cc3nc4c(OC(F)F)cc(C(=O)O)cc4n3C)CC2)n1` [Compound 231, 4-(Difluoromethoxy)-2-((4-(6-((4-fluoro-2-methoxybenzyl)oxy)pyridin-2-yl)piperidin-1-yl)methyl)-1-methyl-1H-benzo[d]imidazole-6-carboxylic acid], for which the EC50 lay in the range of 0.01 to 0.1 µM and the Emax was > 85%.

Take `Cn1c(CN2CCC(c3cccc(OCc4ccc(Cl)cc4F)n3)CC2)nc2c(O[C@H]3C[C@@H](F)C3)cc(C(=O)O)cc21` [Compound 379, 2-((4-(6-((4-Chloro-2-fluorobenzyl)oxy)pyridin-2-yl)piperidin-1-yl)methyl)-4-((1s,3s)-3-fluorocyclobutoxy)-1-methyl-1H-benzo[d]imidazole-6-carboxylic acid]: the EC50 fell in the range of 0.01 to 0.1 µM and the Emax was > 85%.

`Cn1c(CN2CCC(c3cccc(OCc4ccc(Cl)cc4F)n3)CC2)nc2c(OCC3(F)CC3)cc(C(=O)O)cc21` [Compound 188, 2-((4-(6-((4-Chloro-2-fluorobenzyl)oxy)pyridin-2-yl)piperidin-1-yl)methyl)-4-((1-fluorocyclopropyl)methoxy)-1-methyl-1H-benzo[d]imidazole-6-carboxylic acid]: the half-maximal effective concentration (EC50) lay within 0.01 to 0.1 µM and the maximum response (Emax) was > 85%.

Consider `N#Cc1ccc(COc2cccc(C3CCN(Cc4nc5c(OC(F)F)cc(C(=O)O)cc5n4CC4(C#N)CC4)CC3)n2)c(F)c1` [Compound 105, 2-((4-(6-((4-Cyano-2-fluorobenzyl)oxy)pyridin-2-yl)piperidin-1-yl)methyl)-1-((1-cyanocyclopropyl)methyl)-4-(difluoromethoxy)-1H-benzo[d]imidazole-6-carboxylic acid], for which the EC50 is < 0.01 µM and the Emax was > 85%.

In the case of `CCC(F)Oc1cc(C(=O)O)cc2c1nc(CN1CCC(c3cccc(OCc4ccc(Cl)cc4F)n3)CC1)n2C` (stereo not drawn) [Compound 351, 2-((4-(6-((4-Chloro-2-fluorobenzyl)oxy)pyridin-2-yl)piperidin-1-yl)methyl)-4-(1-fluoropropoxy)-1-methyl-1H-benzo[d]imidazole-6-carboxylic acid], the EC50 was in the range of 0.01 to 0.1 µM and the Emax is > 85%.

Molecule `COc1cc(C(=O)O)cc2c1nc(CN1CCC(c3cccc4c3OC[C@@H](c3ccc(Cl)cc3F)O4)CC1)n2C` [Compound 271, (R)-2-((4-(2-(4-Chloro-2-fluorophenyl)-2,3-dihydrobenzo[b][1,4]dioxin-5-yl)piperidin-1-yl)methyl)-4-methoxy-1-methyl-1H-benzo[d]imidazole-6-carboxylic acid] showed a half-maximal effective concentration (EC50) of 0.1 to 1 µM and a maximal response (Emax) of 50 to 85%.

As for `[2H]C([2H])(C)Oc1cc(C(=O)O)cc2c1nc(C([2H])([2H])N1CCC(c3cccc(OC([2H])([2H])c4ccc(Cl)cc4F)n3)CC1)n2C` [Compound 381, 2-((4-(6-((4-Chloro-2-fluorophenyl)methoxy-d2)pyridin-2-yl)piperidin-1-yl)methyl-d2)-4-(ethoxy-1,1-d2)-1-methyl-1H-benzo[d]imidazole-6-carboxylic acid], the EC50 is < 0.01 µM and the maximal effect (Emax) was > 85%.

On to `O=C(O)c1cc(OC(F)F)c2nc(CN3CCC(c4cccc(OCc5ccc(Cl)cc5F)n4)CC3)n(CF)c2c1` [Compound 208, 2-((4-(6-((4-Chloro-2-fluorobenzyl)oxy)pyridin-2-yl)piperidin-1-yl)methyl)-4-(difluoromethoxy)-1-(fluoromethyl)-1H-benzo[d]imidazole-6-carboxylic acid], for which the EC50 was 0.01 to 0.1 µM and the Emax was > 85%.

As to `COCCOc1cc(C(=O)O)cc2c1nc(CN1CCC(c3cccc4c3O[C@](C)(c3ccc(Cl)cn3)O4)CC1)n2Cc1cncs1` [Compound 3, (R)-2-((4-(2-(5-Chloropyridin-2-yl)-2-methylbenzo[d][1,3]dioxol-4-yl)piperidin-1-yl)methyl)-4-(2-methoxyethoxy)-1-(thiazol-5-ylmethyl)-1H-benzo[d]imidazole-6-carboxylic acid], the EC50 lay in the range of 0.1 to 1 µM and the Emax was > 85%.

On to `Cn1c(CN2CCC(c3ccnnc3OCc3ccc(Cl)cc3F)CC2)nc2c(OC(F)F)cc(C(=O)O)cc21` [Compound 355, 2-((4-(3-((4-Chloro-2-fluorobenzyl)oxy)pyridazin-4-yl)piperidin-1-yl)methyl)-4-(difluoromethoxy)-1-methyl-1H-benzo[d]imidazole-6-carboxylic acid], for which the EC50 was in the range of 0.1 to 1 µM and the maximal effect (Emax) is > 85%.

Take `Cn1c(CN2CCC(n3nccc3OCc3ccc(Cl)cc3F)CC2)nc2c(OC(F)F)cc(C(=O)O)cc21` [Compound 200, 2-((4-(5-((4-Chloro-2-fluorobenzyl)oxy)-1H-pyrazol-1-yl)piperidin-1-yl)methyl)-4-(difluoromethoxy)-1-methyl-1H-benzo[d]imidazole-6-carboxylic acid]: the EC50 was > 1 µM and the maximal response (Emax) was > 85%.
